Data reported in PMC9619225, “Novel transketolase inhibitor oroxylin A suppresses the non‐oxidative pentose phosphate pathway and hepatocellular carcinoma tumour growth in mice and patient‐derived organoids” (Clinical and Translational Medicine, 2022).

Legend:
Type in all cases: binding
p53 = molecular target: T1, p53 (Homo sapiens, UniProt P04637); experiment: SPR
T1 construct: gene TP53

Transketolase (TKT) [1] = molecular target: T2, Transketolase (TKT) (Homo sapiens, UniProt P29401); experiment: SPR (Biacore, TKT immobilised on HisCap chip); supported by DARTS, CETSA, TKT-column displacement and enzyme inhibition ([…] at […]); design: Purified human TKT protein
T2 sequence (P29401 1-623): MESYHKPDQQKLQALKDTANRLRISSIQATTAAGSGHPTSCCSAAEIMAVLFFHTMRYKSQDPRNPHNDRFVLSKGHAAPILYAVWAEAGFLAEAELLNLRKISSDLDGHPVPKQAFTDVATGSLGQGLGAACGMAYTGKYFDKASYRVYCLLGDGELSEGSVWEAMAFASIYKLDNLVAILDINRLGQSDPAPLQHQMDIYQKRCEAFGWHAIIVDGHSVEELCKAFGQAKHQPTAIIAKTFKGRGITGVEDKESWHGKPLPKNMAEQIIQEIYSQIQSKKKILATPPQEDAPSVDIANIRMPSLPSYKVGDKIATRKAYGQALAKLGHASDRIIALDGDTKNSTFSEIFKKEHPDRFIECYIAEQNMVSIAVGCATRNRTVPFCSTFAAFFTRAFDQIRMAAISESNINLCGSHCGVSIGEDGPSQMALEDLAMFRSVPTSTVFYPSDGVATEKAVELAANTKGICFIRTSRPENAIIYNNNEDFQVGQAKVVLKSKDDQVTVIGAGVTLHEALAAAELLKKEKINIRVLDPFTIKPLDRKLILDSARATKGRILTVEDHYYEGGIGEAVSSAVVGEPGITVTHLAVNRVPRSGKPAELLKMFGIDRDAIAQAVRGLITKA

Transketolase (TKT) [2] = molecular target: T2, Transketolase (TKT); experiment: competitive displacement chromatography on TKT protein column; design: TKT protein immobilised on silica column

T1 sequence (P04637 whole entry): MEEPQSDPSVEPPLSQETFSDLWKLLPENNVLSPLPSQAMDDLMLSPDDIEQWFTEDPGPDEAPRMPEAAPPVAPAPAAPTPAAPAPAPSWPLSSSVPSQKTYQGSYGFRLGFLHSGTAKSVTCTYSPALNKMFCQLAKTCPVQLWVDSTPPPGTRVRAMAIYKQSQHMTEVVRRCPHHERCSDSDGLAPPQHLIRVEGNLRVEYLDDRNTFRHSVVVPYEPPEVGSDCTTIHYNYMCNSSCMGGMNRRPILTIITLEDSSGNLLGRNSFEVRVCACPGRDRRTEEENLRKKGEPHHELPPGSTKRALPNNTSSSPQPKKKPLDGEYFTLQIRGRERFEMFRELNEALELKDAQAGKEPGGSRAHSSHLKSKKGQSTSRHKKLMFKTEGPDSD

Row | Kd (p53) | Kd (Transketolase (TKT) [1]) | Compound | competitive displacement chromatography on TKT protein column (Transketolase (TKT) [2])
1 | 70.7 µM | 11.9 ± 8.4 µM | COc1c(O)cc2oc(-c3ccccc3)cc(=O)c2c1O [oroxylin A] | –
2 | – | – | Cc1ncc(C[n+]2csc(CCO)c2C)c(O)n1 [oxythiamine] | retention time of oxythiamine was markedly decreased with the increased concentration of oroxylin A in mobile phase
